Results as given in US10259810B2, “N-sulfonylated pyrazolo[3,4-b]pyridin-6-carboxamides and method of use” (AbbVie S.à.r.l., priority 2015, dated 2019).

Columns and labels:
ΔF508-CFTR [1] = target: T1, ΔF508-CFTR (Homo sapiens, UniProt P13569, DEL508-508); experiment: CFTR cell surface levels using HRP-tagged ΔF508-CFTR expressing CFBE cells, intrinsic corrector capacity; type: cell-based; set-up: % Activation: concentration or dose not given beside the values
T1 construct: host or cells: CFBE41o-, doxycycline-inducible
How it was run: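 Surface ΔF508-CFTR was measured as HRP chemiluminescence from an extracellular-loop-4 tag, expressed as percent activity between DMSO and a […] corrector control.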

ΔF508-CFTR [2] = target: T1, ΔF508-CFTR; experiment: CFTR cell surface levels using HRP-tagged ΔF508-CFTR expressing CFBE cells, in the presence of a co-corrector; type: cell-based
How it was run: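 Chemiluminescent read-out of surface HRP (15 min, dark) after PBS washes. Activity is normalized as 100×(sample−DMSO)/(3 μM co-corrector alone−DMSO).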

[3] = HRP-tagged ΔF508-CFTR expressing CFBE41o- cells, compound alone (intrinsic corrector capacity), 20 hours at 33° C.
[4] = HRP-tagged ΔF508-CFTR expressing CFBE41o- cells, compound alone (intrinsic corrector capacity), 20 hours at 33° C., read-out: EC50
[5] = HRP-tagged ΔF508-CFTR CFBE cells, in the presence of 3 μM co-corrector
[6] = HRP-tagged ΔF508-CFTR CFBE cells, in the presence of 3 μM co-corrector, read-out: EC50

T1 sequence (P13569 with tags, fused parts or gaps DEL508-508): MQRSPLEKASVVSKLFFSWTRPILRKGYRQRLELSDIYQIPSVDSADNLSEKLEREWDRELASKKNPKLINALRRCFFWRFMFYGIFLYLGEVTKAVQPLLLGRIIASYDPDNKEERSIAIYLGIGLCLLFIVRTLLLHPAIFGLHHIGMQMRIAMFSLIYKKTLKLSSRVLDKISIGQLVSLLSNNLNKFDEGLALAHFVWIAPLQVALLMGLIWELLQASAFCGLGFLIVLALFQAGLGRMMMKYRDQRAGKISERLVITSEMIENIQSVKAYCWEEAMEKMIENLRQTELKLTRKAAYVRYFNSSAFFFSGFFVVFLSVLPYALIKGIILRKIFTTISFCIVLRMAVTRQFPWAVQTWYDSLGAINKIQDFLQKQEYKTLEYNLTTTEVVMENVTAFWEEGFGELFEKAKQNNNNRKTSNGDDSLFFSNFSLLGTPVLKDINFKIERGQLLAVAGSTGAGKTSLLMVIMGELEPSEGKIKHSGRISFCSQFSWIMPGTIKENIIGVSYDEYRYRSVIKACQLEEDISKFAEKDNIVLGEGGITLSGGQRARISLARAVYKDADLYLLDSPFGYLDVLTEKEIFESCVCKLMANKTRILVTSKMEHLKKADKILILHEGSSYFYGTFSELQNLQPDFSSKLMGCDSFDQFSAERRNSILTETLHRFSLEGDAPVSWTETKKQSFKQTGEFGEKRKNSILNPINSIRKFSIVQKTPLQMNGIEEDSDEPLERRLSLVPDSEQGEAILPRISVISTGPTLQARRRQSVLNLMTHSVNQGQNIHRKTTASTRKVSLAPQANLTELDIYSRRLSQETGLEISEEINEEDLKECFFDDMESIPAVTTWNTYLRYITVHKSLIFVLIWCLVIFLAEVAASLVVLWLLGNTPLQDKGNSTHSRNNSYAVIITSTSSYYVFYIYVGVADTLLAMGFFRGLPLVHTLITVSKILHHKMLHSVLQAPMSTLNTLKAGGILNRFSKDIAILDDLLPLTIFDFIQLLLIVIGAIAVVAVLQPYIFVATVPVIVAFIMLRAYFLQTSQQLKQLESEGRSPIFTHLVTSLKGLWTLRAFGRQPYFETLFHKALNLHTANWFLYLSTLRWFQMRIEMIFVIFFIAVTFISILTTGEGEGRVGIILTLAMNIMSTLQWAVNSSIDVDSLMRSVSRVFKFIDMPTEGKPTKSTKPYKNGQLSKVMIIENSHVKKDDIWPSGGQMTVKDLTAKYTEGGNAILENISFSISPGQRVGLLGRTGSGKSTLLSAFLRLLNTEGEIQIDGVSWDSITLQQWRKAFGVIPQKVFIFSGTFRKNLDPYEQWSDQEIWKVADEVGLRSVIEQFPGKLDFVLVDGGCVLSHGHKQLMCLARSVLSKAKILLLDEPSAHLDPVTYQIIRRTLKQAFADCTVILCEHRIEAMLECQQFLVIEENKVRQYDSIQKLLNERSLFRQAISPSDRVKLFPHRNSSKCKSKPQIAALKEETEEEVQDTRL

SMILES | % Activation (ΔF508-CFTR [1]; [3]) | EC50 (ΔF508-CFTR [1]; [4]) | % Activation (ΔF508-CFTR [2]; [5]) | EC50 (ΔF508-CFTR [2]; [6]) | EC50 (ΔF508-CFTR [1]) | EC50 (ΔF508-CFTR [2])
CC(C)c1nn(-c2ccc(F)cc2)c2nc(C(=O)NS(C)(=O)=O)cc(OCC3COCCN3C(C)C)c12 (stereo not drawn) [Compound 310, 1-(4-fluorophenyl)-N-(methanesulfonyl)-3-(propan-2-yl)-4-{[4-(propan-2-yl)morpholin-3-yl]methoxy}-1H-pyrazolo[3,4-b]pyridine-6-carboxamide] | 66.84% | 0.692 µM | 251.5% | 0.924 µM |  | 
COCCS(=O)(=O)NC(=O)c1cc(OCC2CCOCC2)c2c(C3CCC3)nn(-c3ccccc3)c2n1 [Compound 315, 3-cyclobutyl-N-(2-methoxyethanesulfonyl)-4-[(oxan-4-yl)methoxy]-1-phenyl-1H-pyrazolo[3,4-b]pyridine-6-carboxamide] | 154.87% | 0.218 µM | 315.5% | 0.102 µM |  | 
CC(C)c1nn(-c2ccc(F)cc2)c2nc(C(=O)NS(C)(=O)=O)cc(N3CCC(N(C)C)CC3)c12 [Compound 319, 4-[4-(dimethylamino)piperidin-1-yl]-1-(4-fluorophenyl)-N-(methanesulfonyl)-3-(propan-2-yl)-1H-pyrazolo[3,4-b]pyridine-6-carboxamide] | 34.315% | 0.298 µM | 232% | 0.98 µM |  | 
CS(=O)(=O)NC(=O)c1cc(N2CCC(O)(CC#N)CC2)c2c(C3CCC3)nn(-c3ccccc3)c2n1 [Compound 326, 4-[4-(cyanomethyl)-4-hydroxypiperidin-1-yl]-3-cyclobutyl-N-(methanesulfonyl)-1-phenyl-1H-pyrazolo[3,4-b]pyridine-6-carboxamide] | 167.1% | 2.38 µM | 325.3% | 0.73 µM |  | 
CC(C)c1nn(-c2cccc(N(C)C)c2)c2nc(C(=O)NS(=O)(=O)CCCN=[N+]=[N-])cc(-c3ccc(N=[N+]=[N-])cc3)c12 [Compound 327, 4-(4-azidophenyl)-N-(3-azidopropane-1-sulfonyl)-1-[3-(dimethylamino)phenyl]-3-(propan-2-yl)-1H-pyrazolo[3,4-b]pyridine-6-carboxamide] | 239.4% | 0.145 µM | 433.9% | 0.0999 µM |  | 
CS(=O)(=O)NC(=O)c1cc(N2CCN(CC(F)(F)F)CC2)c2c(C3CCC3)nn(-c3ccccc3)c2n1 [Compound 329, 3-cyclobutyl-N-(methanesulfonyl)-1-phenyl-4-[4-(2,2,2-trifluoroethyl)piperazin-1-yl]-1H-pyrazolo[3,4-b]pyridine-6-carboxamide] | 163.85% | 0.158 µM | 318.4% | 0.777 µM |  | 
COCCS(=O)(=O)NC(=O)c1cc(N2CCN(CC(F)(F)F)CC2)c2c(C3CCC3)nn(-c3ccccc3)c2n1 [Compound 330, 3-cyclobutyl-N-(2-methoxyethanesulfonyl)-1-phenyl-4-[4-(2,2,2-trifluoroethyl)piperazin-1-yl]-1H-pyrazolo[3,4-b]pyridine-6-carboxamide] | 133.1% | 0.213 µM | 285.4% | 0.124 µM |  | 
CC(C)c1nn(-c2ccnc(N3CCOCC3)c2)c2nc(C(=O)NS(C)(=O)=O)cc(OCC3CCOCC3)c12 [Compound 336, N-(methanesulfonyl)-1-[2-(morpholin-4-yl)pyridin-4-yl]-4-[(oxan-4-yl)methoxy]-3-(propan-2-yl)-1H-pyrazolo[3,4-b]pyridine-6-carboxamide] | 107.2% | 0.42 µM | 232.42% | 0.282 µM |  | 
CC(C)c1nn(-c2ccc(F)cc2)c2nc(C(=O)NS(C)(=O)=O)cc(N3CCNC(C(F)(F)F)C3)c12 (stereo not drawn) [Compound 339, 1-(4-fluorophenyl)-N-(methanesulfonyl)-3-(propan-2-yl)-4-[3-(trifluoromethyl)piperazin-1-yl]-1H-pyrazolo[3,4-b]pyridine-6-carboxamide] | 142.05% | 1.4 µM | 295.5% | 0.402 µM |  | 
COCCOCC1(F)CCCN(c2cc(C(=O)NS(C)(=O)=O)nc3c2c(C(C)C)nn3-c2ccc(F)cc2)C1 (stereo not drawn) [Compound 346, 4-{3-fluoro-3-[(2-methoxyethoxy)methyl]piperidin-1-yl}-1-(4-fluorophenyl)-N-(methanesulfonyl)-3-(propan-2-yl)-1H-pyrazolo[3,4-b]pyridine-6-carboxamide] | 195.8% | 0.308 µM | 375.1% | 0.253 µM |  | 
O=C(NS(=O)(=O)CCCN1CCOCC1)c1cc(OCC2CCOCC2)c2c(C3CCC3)nn(-c3ccccc3)c2n1 [Compound 347, 3-cyclobutyl-N-[3-(morpholin-4-yl)propane-1-sulfonyl]-4-[(oxan-4-yl)methoxy]-1-phenyl-1H-pyrazolo[3,4-b]pyridine-6-carboxamide] | 131.4% |  | 301.15% |  | 0.263 µM | 0.0543 µM
CS(=O)(=O)NC(=O)c1cc(N2CCC[C@@H](CO)C2)c2c(C3CCC3)nn(-c3ccccc3)c2n1 [Compound 349, 3-cyclobutyl-4-[(3R)-3-(hydroxymethyl)piperidin-1-yl]-N-(methanesulfonyl)-1-phenyl-1H-pyrazolo[3,4-b]pyridine-6-carboxamide] | 161.7% |  | 327.9% |  | 0.512 µM | 0.424 µM
O=C(NS(=O)(=O)CCCN1CCOCC1)c1cc(N2CCC[C@@H](CO)C2)c2c(C3CCC3)nn(-c3ccccc3)c2n1 [Compound 350, 3-cyclobutyl-4-[(3R)-3-(hydroxymethyl)piperidin-1-yl]-N-[3-(morpholin-4-yl)propane-1-sulfonyl]-1-phenyl-1H-pyrazolo[3,4-b]pyridine-6-carboxamide] | 104.21% |  | 274.6% |  | 0.357 µM | 0.287 µM
O=C(NS(=O)(=O)N1CCC(N2CCCC2)CC1)c1cc(OCC2CCOCC2)c2c(C3CCC3)nn(-c3ccccc3)c2n1 [Compound 351, 3-cyclobutyl-4-[(oxan-4-yl)methoxy]-1-phenyl-N-[4-(pyrrolidin-1-yl)piperidine-1-sulfonyl]-1H-pyrazolo[3,4-b]pyridine-6-carboxamide] | 50.87% | 0.0735 µM | 232.5% | 0.0811 µM |  | 
CN1CCN(C(=O)[C@@H]2CCCN2S(=O)(=O)NC(=O)c2cc(OCC3CCOCC3)c3c(C4CCC4)nn(-c4ccccc4)c3n2)CC1 [Compound 352, 3-cyclobutyl-N-[(2S)-2-(4-methylpiperazine-1-carbonyl)pyrrolidine-1-sulfonyl]-4-[(oxan-4-yl)methoxy]-1-phenyl-1H-pyrazolo[3,4-b]pyridine-6-carboxamide] | 27.44% | 5 µM | 158.4% | 2.78 µM |  | 
O=C(NS(=O)(=O)N1CCC(N2CCCCC2)CC1)c1cc(OCC2CCOCC2)c2c(C3CCC3)nn(-c3ccccc3)c2n1 [Compound 353, N-([1,4'-bipiperidine]-1'-sulfonyl)-3-cyclobutyl-4-[(oxan-4-yl)methoxy]-1-phenyl-1H-pyrazolo[3,4-b]pyridine-6-carboxamide] | 56.22% | 0.0879 µM | 193.45% | 0.346 µM |  | 
CCCN(C)S(=O)(=O)NC(=O)c1cc(OCC2CCOCC2)c2c(C3CCC3)nn(-c3ccccc3)c2n1 [Compound 354, 3-cyclobutyl-N-[methyl(propyl)sulfamoyl]-4-[(oxan-4-yl)methoxy]-1-phenyl-1H-pyrazolo[3,4-b]pyridine-6-carboxamide] | 113.7% | 0.123 µM | 351% | 0.232 µM |  | 
CCCN(CC)S(=O)(=O)NC(=O)c1cc(OCC2CCOCC2)c2c(C3CCC3)nn(-c3ccccc3)c2n1 [Compound 355, 3-cyclobutyl-N-[ethyl(propyl)sulfamoyl]-4-[(oxan-4-yl)methoxy]-1-phenyl-1H-pyrazolo[3,4-b]pyridine-6-carboxamide] | 102.4% | 0.161 µM | 278.4% | 0.377 µM |  | 
CCOC(=O)N1CCC(NS(=O)(=O)NC(=O)c2cc(OCC3CCOCC3)c3c(C4CCC4)nn(-c4ccccc4)c3n2)CC1 [Compound 356, ethyl 4-[({3-cyclobutyl-4-[(oxan-4-yl)methoxy]-1-phenyl-1H-pyrazolo[3,4-b]pyridine-6-carbonyl}sulfamoyl)amino]piperidine-1-carboxylate] | 188.25% | 0.105 µM | 372% | 0.0483 µM |  | 
CC(=O)N1CCCN(S(=O)(=O)NC(=O)c2cc(OCC3CCOCC3)c3c(C4CCC4)nn(-c4ccccc4)c3n2)CC1 [Compound 357, N-(4-acetyl-1,4-diazepane-1-sulfonyl)-3-cyclobutyl-4-[(oxan-4-yl)methoxy]-1-phenyl-1H-pyrazolo[3,4-b]pyridine-6-carboxamide] | 72.83% | 0.115 µM | 229.8% | 0.13 µM |  | 
COCC1CCN(c2cc(C(=O)NS(=O)(=O)CCO)nc3c2c(C2CCC2)nn3-c2ccccc2)CC1 [Compound 366, 3-cyclobutyl-N-(2-hydroxyethanesulfonyl)-4-[4-(methoxymethyl)piperidin-1-yl]-1-phenyl-1H-pyrazolo[3,4-b]pyridine-6-carboxamide] | 264% | 0.298 µM | 443.7% | 0.0827 µM |  | 
